This is an account of results in patent US12246079B2, “Bisacurone composition and method of skin whitening” (Vidya Herbs, Inc., priority 2019, dated 2025).

In the test the test system is B16F10 murine melanoma cells. In words: Melanin content in α-MSH-stimulated B16F10 cells. The settings on record: 400 μg, vs α-MSH alone treated B16F10 cells. The test is classed as cell-based. Here is the method: B16F10 cells (obtained from National Centre for Cell Sciences (NCCS), Pune, India) were cultured in Dulbecco's Modified Eagle's Medium (DMEM; Sigma Aldrich Co, St Louis, USA) with 10% fetal bovine serum (FBS) and penicillin/streptomycin (100 IU.50 Pg ml-1) in a humidified atmosphere of 5% CO2 at 37° C. The cells were cultured in 6-well plates for melanin quantification and enzyme activity assays.
Determination of melanin content of cells was done using a modification of the method of Bilodeau et al (Bilodeau et al 2001). In the present study, the amount of melanin was used as an index of melanogenesis. B16 F10 cells (5×10^4) were transferred to 24-well dishes and incubated in the presence or absence of 100 nM α-MSH. Cells were then incubated for 24 h with different concentration of the composition. After washing twice with PBS, samples were dissolved in 100 μl of 1N NaOH. The samples were then incubated at 60° C. for 1 h and mixed to solubilize the melanin. Absorbance at 405 nm was compared with a standard curve of synthetic melanin.
In order to assess the anti-melanogenesis activity of the composition, the melanin content was measured in both α-MSH-untreated and α-MSH-treated B16F10 cells. The cells were treated with/without α-MSH, followed by treatment with the composition at doses of 100, 200 and 400 μg/Ml (FIG. 4A).

Regarding `OC[C@H]1O[C@@H](Oc2ccc(O)cc2)[C@H](O)[C@@H](O)[C@@H]1O` [arbutin], the “decrease of melanin content” value is given as 35.96%.
